The target of experiment [1] is T1, M. thermoresistibile OtsA R213E (Mycolicibacterium thermoresistibile, UniProt G7CGT2, R213E).
T1 sequence (G7CGT2 1-486 R213E): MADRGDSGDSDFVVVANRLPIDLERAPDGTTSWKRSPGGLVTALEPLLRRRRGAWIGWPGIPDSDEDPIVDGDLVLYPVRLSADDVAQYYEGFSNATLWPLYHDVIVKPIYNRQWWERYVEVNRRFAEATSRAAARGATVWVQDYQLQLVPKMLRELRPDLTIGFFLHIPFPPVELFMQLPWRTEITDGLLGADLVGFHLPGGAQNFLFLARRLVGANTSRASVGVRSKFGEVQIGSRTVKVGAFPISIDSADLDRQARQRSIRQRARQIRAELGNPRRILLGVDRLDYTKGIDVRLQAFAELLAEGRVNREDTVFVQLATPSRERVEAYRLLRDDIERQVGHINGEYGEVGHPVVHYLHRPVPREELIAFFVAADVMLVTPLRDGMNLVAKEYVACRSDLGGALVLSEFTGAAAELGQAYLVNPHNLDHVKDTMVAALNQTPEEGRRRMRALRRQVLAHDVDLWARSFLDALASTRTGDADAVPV
The experiment can be described thus: Effect of allosteric regulators on OtsA activity (R213E). In kind it is biochemical, Mycobacterium thermoresistibile. The procedure: (§1) . All reagents used were obtained from Sigma-Aldrich. The enzymatic reactions (200-μl reaction mixture) were performed at 37°C, and the reaction mixtures contained 50 mM Tris (pH 7.5), 200 mM NaCl, 10 mM MgCl2, 50 mM KCl, 0.3 mM NADH, 2.5 mM phosphoenolpyruvate (PEP), 10 units of pyruvate kinase-lactate dehydrogenase, 0.1 μM enzyme, and various concentrations of G6P and NDP-glucose to determine kinetic parameters.
(§2) […]. All experiments were performed in triplicate in a PHERAstar plate reader (BMG Labtech), and data were analyzed with Prism 5 (GraphPad Software).

Experiment [2] addresses T2, M. thermoresistibile OtsA R384E (Mycolicibacterium thermoresistibile, UniProt G7CGT2, R384E).
T2 sequence (G7CGT2 1-486 R384E): T1 sequence (G7CGT2 1-486 R213E)
The experiment is described as follows: Effect of allosteric regulators on OtsA activity (R384E). The format is biochemical, Mycobacterium thermoresistibile. The procedure: as §1, §2

pIC50: −log10 of the molar value. Some results are limits rather than exact numbers.

Broadly, the pIC50 is the IC50 on a negative log10 scale, so that one unit is a factor of ten.

For the compound `O=C(O)C(CO)OP(=O)(O)O` (centres unmarked) [2PG, 2-phosphoglyceric acid], the pIC50 in experiment [1] is 1.92; in experiment [2], greater than 1.00.

Values taken from article PMC6879718, “Mycobacterial OtsA Structures Unveil Substrate Preference Mechanism and Allosteric Regulation by 2-Oxoglutarate and 2-Phosphoglycerate” (mBio, 2019).
